# Legend:
# [1] = system: progenitors (CD34+CD38+Lin−) from CML BC-derived tumors; assay: CML BC progenitor engraftment in transplanted mice, FACS of human CD45+ cells in liver; format: in vivo; conditions: oral gavage daily for 3 weeks, 120 μg/kg, vs vehicle, FACS of livers, n=4 vs n=5, p=0.03
# Method: Briefly, immunocompromised neonatal mice were transplanted intrahepatically with luciferase GFP transduced myeloid sarcomas from mice transplanted with BC CSC, the methodology described in Geron et al, Cancer Cell 2008; 13(4):321-30. […] Engraftment levels were determined by FACS analysis of human CD45^+ expression in mouse livers on […] post-transplant.
# FIG. 3C. Left: qPCR analysis of Mcl-1 long (blue) and short (red) transcripts from progenitors (CD34^+CD38^+Lin^−) of several normal and CML samples. […] FIG. 4 below. […] FIG. 4A. […] Representative FACS data of CD45^+ cells in mouse livers transplanted with progenitors (CD34^+CD38^+Lin^−) from CML BC-derived tumors. […] Mouse livers were harvested at 13 weeks post-transplant, stained, and analyzed for human CD45^+ cells using FACS. • FIG. 4C.
# [2] = system: Mcl-1 long and short isoform; assay: qPCR of Mcl-1 long and short isoforms in tumor cells harvested from treated mice; format: in vivo; conditions: tumor cells from treated mice (n=3) vs vehicle (n=2)
# Text: For gene expression analysis, cDNA was made from RNA isolated from sorted progenitor populations (CD34^+CD38^+Lin^−). Isoform specific RT-PCR was used to determine expression levels of Bcl-2, Bcl-X, and Mcl-1 isoforms. Expression was confirmed using qPCR.
smiles,measurement,setting,value
Cc1cc2c(C(C)C)c(O)c(O)cc2c(O)c1-c1c(C)cc2c(C(C)C)c(O)c(O)cc2c1O [apogossypol],number/frequency of human CD45+ cells engrafted in the mouse liver (tumor cell engraftment),[1],statistically significant (p=0.03) decrease in tumor cell engraftment
same,number/frequency of human CD45+ cells engrafted in the mouse liver (tumor cell engraftment),[1]; listed as Apogossypol,statistically significant decrease
same,Mcl-1 short isoform expression,[2],higher Mcl-1 short isoform expression

# Reference: US9194862B2, “Compositions and methods for determining cancer stem cell self-renewal potential” (THE REGENTS OF THE UNIVERSITY OF CALIFORNIA, priority 2009, dated 2015)
